Measurements from US8952024B2, “Herbicidal pyrimidone derivatives” (E I du Pont de Nemours and Company, priority 2009, dated 2015).

How the values were obtained:
Assay in all cases: Test C plant response
Format in all cases: in vivo
Conditions in all cases: Postemergence, scale 0 to 100
[1] = system: windgrass (Apera spica-venti)
Procedure, shortened: (§1)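 Formulation: non-phytotoxic solvent + surfactant. Controlled growth environment, 14 d. Visual rating vs controls, 0 = no effect, 100 = complete control; dash = no result.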

[2] = system: chickweed (common chickweed, Stellaria media)
Procedure, shortened: as §1

[3] = system: wild oat (Avena fatua)
Procedure, shortened: as §1

[4] = system: bluegrass (annual bluegrass, Poa annua)
Procedure, shortened: as §1

[5] = system: spring wheat (Triticum aestivum)
Procedure, shortened: as §1

[6] = system: field poppy (Papaver rhoeas)
Procedure, shortened: as §1

[7] = system: winter barley (Hordeum vulgare)
Procedure, shortened: as §1

[8] = system: green foxtail (Setaria viridis)
Procedure, shortened: as §1

[9] = system: spring barley (Hordeum vulgare)
Procedure, shortened: as §1

[10] = system: galium (catchweed bedstraw, Galium aparine)
Procedure, shortened: as §1

[11] = system: Italian ryegrass (Lolium multiflorum)
Procedure, shortened: as §1

[12] = system: bromegrass (downy bromegrass, Bromus tectorum)
Procedure, shortened: as §1

[13] = system: kochia (Kochia scoparia)
Procedure, shortened: as §1

[14] = system: wild radish (Raphanus raphanistrum)
Procedure, shortened: as §1

[15] = system: blackgrass (Alopecurus myosuroides)
Procedure, shortened: as §1

[16] = system: deadnettle (henbit deadnettle, Lamium amplexicaule)
Procedure, shortened: as §1

[17] = system: wild mustard (Sinapis arvensis)
Procedure, shortened: as §1

[18] = system: oilseed rape (Brassica napus)
Procedure, shortened: as §1

[19] = system: canarygrass (Phalaris minor)
Procedure, shortened: as §1

[20] = system: Russian thistle (Salsola iberica)
Procedure, shortened: as §1

[21] = system: buckwheat (wild buckwheat, Polygonum convolvulus)
Procedure, shortened: as §1

[22] = system: field violet (Viola arvensis)
Procedure, shortened: as §1

[23] = system: winter wheat (Triticum aestivum)
Procedure, shortened: as §1

## Cc1cc(C)cc(-n2c(-c3ccccc3)ncc(C(=O)C3=C(O)CCCC3=O)c2=O)c1 [Compound 33]
[1]; 31 g ai/ha
  Plant response rating: Windgrass: 20
[1]; 16 g ai/ha
  Plant response rating: Windgrass: 0
[1]; 62 g ai/ha
  Plant response rating: Windgrass: 25
[1]; 125 g ai/ha
  Plant response rating: Windgrass: 40
[2]; 31 g ai/ha
  Plant response rating: Chickweed: 90
[2]; 16 g ai/ha
  Plant response rating: Chickweed: 90
[2]; 62 g ai/ha
  Plant response rating: Chickweed: 98
[2]; 125 g ai/ha
  Plant response rating: Chickweed: 100
[3]; 31 g ai/ha
  Plant response rating: Oat, Wild: 0
[3]; 16 g ai/ha
  Plant response rating: Oat, Wild: 0
[3]; 62 g ai/ha
  Plant response rating: Oat, Wild: 5
[3]; 125 g ai/ha
  Plant response rating: Oat, Wild: 10
[4]; 31 g ai/ha
  Plant response rating: Bluegrass: 0
[4]; 16 g ai/ha
  Plant response rating: Bluegrass: 0
[4]; 62 g ai/ha
  Plant response rating: Bluegrass: 15
[4]; 125 g ai/ha
  Plant response rating: Bluegrass: 40
[5]; 31 g ai/ha
  Plant response rating: Wheat, Spring: 10
[5]; 16 g ai/ha
  Plant response rating: Wheat, Spring: 10
[5]; 62 g ai/ha
  Plant response rating: Wheat, Spring: 10
[5]; 125 g ai/ha
  Plant response rating: Wheat, Spring: 10
[6]; 31 g ai/ha
  Plant response rating: Field Poppy: 80
[6]; 16 g ai/ha
  Plant response rating: Field Poppy: 80
[6]; 62 g ai/ha
  Plant response rating: Field Poppy: 90
[6]; 125 g ai/ha
  Plant response rating: Field Poppy: 98
[7]; 31 g ai/ha
  Plant response rating: Barley, Winter: 0
[7]; 16 g ai/ha
  Plant response rating: Barley, Winter: 0
[7]; 62 g ai/ha
  Plant response rating: Barley, Winter: 0
[7]; 125 g ai/ha
  Plant response rating: Barley, Winter: 5
[8]; 31 g ai/ha
  Plant response rating: Foxtail, Green: 95
[8]; 16 g ai/ha
  Plant response rating: Foxtail, Green: 80
[8]; 62 g ai/ha
  Plant response rating: Foxtail, Green: 95
[8]; 125 g ai/ha
  Plant response rating: Foxtail, Green: 95
[9]; 31 g ai/ha
  Plant response rating: Barley, Spring: 0
[9]; 16 g ai/ha
  Plant response rating: Barley, Spring: 0
[9]; 62 g ai/ha
  Plant response rating: Barley, Spring: 0
[9]; 125 g ai/ha
  Plant response rating: Barley, Spring: 0
[10]; 31 g ai/ha
  Plant response rating: Galium: 40
[10]; 16 g ai/ha
  Plant response rating: Galium: 35
[10]; 62 g ai/ha
  Plant response rating: Galium: 50
[10]; 125 g ai/ha
  Plant response rating: Galium: 60
[11]; 31 g ai/ha
  Plant response rating: Ryegrass, Italian: 0
[11]; 16 g ai/ha
  Plant response rating: Ryegrass, Italian: 0
[11]; 62 g ai/ha
  Plant response rating: Ryegrass, Italian: 10
[11]; 125 g ai/ha
  Plant response rating: Ryegrass, Italian: 10
[12]; 31 g ai/ha
  Plant response rating: Bromegrass, Downy: 10
[12]; 16 g ai/ha
  Plant response rating: Bromegrass, Downy: 0
[12]; 62 g ai/ha
  Plant response rating: Bromegrass, Downy: 15
[12]; 125 g ai/ha
  Plant response rating: Bromegrass, Downy: 20
[13]; 31 g ai/ha
  Plant response rating: Kochia: 50
[13]; 16 g ai/ha
  Plant response rating: Kochia: 35
[13]; 62 g ai/ha
  Plant response rating: Kochia: 60
[13]; 125 g ai/ha
  Plant response rating: Kochia: 70
[14]; 31 g ai/ha
  Plant response rating: Radish, Wild: 95
[14]; 16 g ai/ha
  Plant response rating: Radish, Wild: 90
[14]; 62 g ai/ha
  Plant response rating: Radish, Wild: 95
[14]; 125 g ai/ha
  Plant response rating: Radish, Wild: 98
[15]; 31 g ai/ha
  Plant response rating: Blackgrass: 5
[15]; 16 g ai/ha
  Plant response rating: Blackgrass: 0
[15]; 62 g ai/ha
  Plant response rating: Blackgrass: 35
[15]; 125 g ai/ha
  Plant response rating: Blackgrass: 35
[16]; 31 g ai/ha
  Plant response rating: Deadnettle: 98
[16]; 16 g ai/ha
  Plant response rating: Deadnettle: 95
[16]; 62 g ai/ha
  Plant response rating: Deadnettle: 98
[16]; 125 g ai/ha
  Plant response rating: Deadnettle: 100
[17]; 31 g ai/ha
  Plant response rating: Mustard, Wild: 98
[17]; 16 g ai/ha
  Plant response rating: Mustard, Wild: 98
[17]; 62 g ai/ha
  Plant response rating: Mustard, Wild: 98
[17]; 125 g ai/ha
  Plant response rating: Mustard, Wild: 100
[18]; 31 g ai/ha
  Plant response rating: Oilseed Rape: 98
[18]; 16 g ai/ha
  Plant response rating: Oilseed Rape: 90
[18]; 62 g ai/ha
  Plant response rating: Oilseed Rape: 100
[18]; 125 g ai/ha
  Plant response rating: Oilseed Rape: 100
[19]; 31 g ai/ha
  Plant response rating: Canarygrass: 0
[19]; 16 g ai/ha
  Plant response rating: Canarygrass: 0
[19]; 62 g ai/ha
  Plant response rating: Canarygrass: 5
[19]; 125 g ai/ha
  Plant response rating: Canarygrass: 5
[20]; 31 g ai/ha
  Plant response rating: Russian Thistle: 80
[20]; 16 g ai/ha
  Plant response rating: Russian Thistle: 80
[20]; 62 g ai/ha
  Plant response rating: Russian Thistle: 90
[20]; 125 g ai/ha
  Plant response rating: Russian Thistle: 90
[21]; 31 g ai/ha
  Plant response rating: Buckwheat, Wild: 65
[21]; 16 g ai/ha
  Plant response rating: Buckwheat, Wild: 60
[21]; 62 g ai/ha
  Plant response rating: Buckwheat, Wild: 75
[21]; 125 g ai/ha
  Plant response rating: Buckwheat, Wild: 75
[22]; 31 g ai/ha
  Plant response rating: Field Violet: 90
[22]; 16 g ai/ha
  Plant response rating: Field Violet: 65
[22]; 62 g ai/ha
  Plant response rating: Field Violet: 95
[22]; 125 g ai/ha
  Plant response rating: Field Violet: 95
[23]; 31 g ai/ha
  Plant response rating: Wheat, Winter: 0
[23]; 16 g ai/ha
  Plant response rating: Wheat, Winter: 0
[23]; 62 g ai/ha
  Plant response rating: Wheat, Winter: 5
[23]; 125 g ai/ha
  Plant response rating: Wheat, Winter: 5
